Measurements taken from PubChem BioAssay AID330 (DTP/NCI, 2004).
Values joined by “and” are separate entries in the source; they are usually repeats but may differ in a detail not shown here. Identical values can stand only once. Inconclusive results and toxic doses are left out.

System: P388 leukemia ip, CD2F1 mice, survival T/C
Test: NCI In Vivo Anticancer Drug Screen. Data for tumor model P388 Leukemia (intraperitoneal) in CD2F1 (CDF1) mice
Conditions: endpoint: median survival time, higher = longer survival
Outline: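 Mice carrying the transplanted tumor received test compound or vehicle. Survival was recorded in each group, and the value is the treated-group measurement divided by that of the vehicle-treated control group.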

[1] = dose: 12.5 mg/kg/injection, schedule: Q01DX009 (ip), vehicle: saline with Tween-80
[2] = dose: 25.0 mg/kg/injection, schedule: Q01DX009 (ip), vehicle: saline with Tween-80
[3] = dose: 50.0 mg/kg/injection, schedule: Q01DX009 (ip), vehicle: saline with Tween-80
[4] = dose: 60.0 mg/kg/injection, schedule: Q01DX005 (ip), vehicle: Klucel (hydroxypropylcellulose) (HPC)
[5] = dose: 120.0 mg/kg/injection, schedule: Q01DX005 (ip), vehicle: Klucel (hydroxypropylcellulose) (HPC)
[6] = dose: 240.0 mg/kg/injection, schedule: Q01DX005 (ip), vehicle: Klucel (hydroxypropylcellulose) (HPC)
[7] = dose: 60.0 mg/kg/injection, schedule: Q01DX005 (ip), vehicle: saline with Tween-80
[8] = dose: 120.0 mg/kg/injection, schedule: Q01DX005 (ip), vehicle: saline with Tween-80
[9] = dose: 25.0 mg/kg/injection, schedule: Q04DX003 (ip), vehicle: saline with Tween-80
[10] = dose: 50.0 mg/kg/injection, schedule: Q04DX003 (ip), vehicle: saline with Tween-80
[11] = dose: 50.0 mg/kg/injection, schedule: Q01DX009 (ip), vehicle: Klucel (hydroxypropylcellulose) (HPC)
[12] = dose: 100.0 mg/kg/injection, schedule: Q01DX009 (ip), vehicle: Klucel (hydroxypropylcellulose) (HPC)
[13] = dose: 200.0 mg/kg/injection, schedule: Q01DX009 (ip), vehicle: Klucel (hydroxypropylcellulose) (HPC)
[14] = dose: 100.0 mg/kg/injection, schedule: Q01DX009 (ip), vehicle: saline with Tween-80
[15] = dose: 100.0 mg/kg/injection, schedule: Q04DX003 (ip), vehicle: saline with Tween-80

`Cc1cc(Cl)ccc1N=C(N)N` was tested, and the T/C [1] was 100 % of control, the T/C [2] was 101 % of control and the T/C [3] was 99 % of control and 107 % of control.

In the case of `CCc1c(C)nc2cc(-c3cc(C)n4c(=O)c(CC)c(C)nc4c3)cc(C)n2c1=O`, the T/C [4] is reported as 90 % of control, the T/C [5] is reported as 96 % of control and the T/C [6] is reported as 100 % of control.

In the case of `Cn1cc(Cl)nc1CO`, the T/C (dose: 50.0 mg/kg/injection, schedule: Q04DX003 (ip), vehicle: saline sonified) is reported as 95 % of control, the T/C (dose: 100.0 mg/kg/injection, schedule: Q04DX003 (ip), vehicle: saline sonified) is reported as 100 % of control and the T/C (dose: 200.0 mg/kg/injection, schedule: Q04DX003 (ip), vehicle: saline sonified) is reported as 100 % of control.

For `Nc1cccc(C(=O)c2ccc(N)c(N)c2)c1`, the T/C [7] was 90 % of control and the T/C [8] was 92 % of control.

In the case of `CC1CCCC(C)N1NC1=NCCO1` (stereo not given), the T/C [9] is reported as 104 % of control and the T/C [10] is reported as 95 % of control.

`O=C(O)C(CSC(c1ccccc1)(c1ccccc1)c1ccccc1)NC(c1ccccc1)(c1ccccc1)c1ccccc1` (stereo not given) was tested, and the T/C (dose: 12.5 mg/kg/injection, schedule: Q01DX009 (ip), vehicle: other) was 93 % of control, the T/C (dose: 25.0 mg/kg/injection, schedule: Q01DX009 (ip), vehicle: other) was 94 % of control and the T/C (dose: 50.0 mg/kg/injection, schedule: Q01DX009 (ip), vehicle: other) was 93 % of control. For the same compound, the T/C (dose: 100.0 mg/kg/injection, schedule: Q01DX009 (ip), vehicle: other) was 98 % of control.

`CC(C(=O)O)c1cn(Cc2ccccc2)c2ccccc12` (stereo not given) was tested, and the T/C [7] was 100 % of control, the T/C [8] was 102 % of control and the T/C (dose: 240.0 mg/kg/injection, schedule: Q01DX005 (ip), vehicle: saline with Tween-80) was 96 % of control.

In the case of `CN1/C(=C/C2=C([O-])C(=C/C3=[N+](C)c4ccccc4C3(C)C)/C2=O)C(C)(C)c2ccccc21`, the T/C [4] is reported as 91 % of control and the T/C [5] is reported as 87 % of control.

In the case of `O=c1[nH]c2cc([N+](=O)[O-])ccc2o1`, the T/C [11] is reported as 102 % of control, the T/C [12] is reported as 105 % of control and the T/C [13] is reported as 105 % of control.

For `CC(C)(C)N=C(Cc1ccccc1)N1CCCCC1`, the T/C [3] was 100 % of control and the T/C [14] was 96 % of control.

For `Nc1nc(N)nc(-c2cc(Br)c(N)c(Br)c2)n1`, the T/C (dose: 50.0 mg/kg/injection, schedule: Q01DX005 (ip), vehicle: saline with Tween-80) was 95 % of control, the T/C (dose: 100.0 mg/kg/injection, schedule: Q01DX005 (ip), vehicle: saline with Tween-80) was 101 % of control and the T/C (dose: 200.0 mg/kg/injection, schedule: Q01DX005 (ip), vehicle: saline with Tween-80) was 93 % of control.

In the case of `Cn1cnc([N+](=O)[O-])c1Sc1cn(C2CC(O)C(CO)O2)c(=O)[nH]c1=O` (stereo not given), the T/C [4] is reported as 101 % of control, the T/C [5] is reported as 102 % of control and the T/C [6] is reported as 107 % of control.

`CCCCCCCCCCCCCCCCCOC(=O)CCCCCCCCCCCCC` was tested, and the T/C (dose: 100.0 mg/kg/injection, schedule: Q01DX001 (ip), vehicle: other) was 100 % of control, the T/C (dose: 200.0 mg/kg/injection, schedule: Q01DX001 (ip), vehicle: other) was 95 % of control and the T/C (dose: 400.0 mg/kg/injection, schedule: Q01DX001 (ip), vehicle: other) was 90 % of control.

`O=C/C=C/c1ccc([N+](=O)[O-])cc1` was tested, and the T/C [9] was 100 % of control, the T/C [10] was 110 % of control and the T/C [15] was 105 % of control.

With `CSc1nc2c(Cl)ncnc2s1` the T/C [7] was 96 % of control and the T/C [8] was 96 % of control.

With `Nc1nc([Se])c2ncn(C3OC(CO)C(O)C3O)c2n1` (stereo not given) the T/C (dose: 4.0 mg/kg/injection, schedule: Q01DX009 (ip), vehicle: saline) was 150 % of control and 157 % of control, the T/C (dose: 6.25 mg/kg/injection, schedule: Q01DX009 (ip), vehicle: saline) was 159 % of control and the T/C (dose: 8.0 mg/kg/injection, schedule: Q01DX009 (ip), vehicle: saline) was 164 % of control and 179 % of control. The T/C (dose: 8.0 mg/kg/injection, schedule: Q01DX009 (ip), vehicle: water) was 157 % of control, the T/C (dose: 12.5 mg/kg/injection, schedule: Q01DX009 (ip), vehicle: saline) was 183 % of control and the T/C (dose: 16.0 mg/kg/injection, schedule: Q01DX009 (ip), vehicle: saline) was 157 % of control and 198 % of control and 202 % of control. The T/C (dose: 16.0 mg/kg/injection, schedule: Q01DX009 (ip), vehicle: water) was 160 % of control and 161 % of control, the T/C (dose: 25.0 mg/kg/injection, schedule: Q01DX009 (ip), vehicle: saline) was 186 % of control and the T/C (dose: 32.0 mg/kg/injection, schedule: Q01DX009 (ip), vehicle: saline) was 121 % of control and 247 % of control and 98 % of control. For the same compound, the T/C (dose: 32.0 mg/kg/injection, schedule: Q01DX009 (ip), vehicle: water) was 190 % of control and 191 % of control and the T/C (dose: 50.0 mg/kg/injection, schedule: Q01DX009 (ip), vehicle: saline) was 96 % of control.

In the case of `C[N+](C)(CCCCCC[N+](C)(C)C1c2ccccc2-c2ccccc21)C1c2ccccc2-c2ccccc21`, the T/C (dose: 0.13 mg/kg/injection, schedule: Q01DX009 (ip), vehicle: saline) is reported as 105 % of control, the T/C (dose: 0.25 mg/kg/injection, schedule: Q01DX009 (ip), vehicle: saline) is reported as 105 % of control and the T/C (dose: 0.5 mg/kg/injection, schedule: Q01DX009 (ip), vehicle: saline) is reported as 102 % of control. The T/C (dose: 1.0 mg/kg/injection, schedule: Q01DX009 (ip), vehicle: saline) was 101 % of control.

`CCOC(=O)c1c(N)sc2c1CCCCC2` was tested, and the T/C [15] was 100 % of control, the T/C (dose: 200.0 mg/kg/injection, schedule: Q04DX003 (ip), vehicle: saline with Tween-80) was 104 % of control and the T/C (dose: 400.0 mg/kg/injection, schedule: Q04DX003 (ip), vehicle: saline with Tween-80) was 100 % of control.

`CCn1cnc2c(=S)nc(N)[nH]c21` was tested, and the T/C (dose: 25.0 mg/kg/injection, schedule: Q01DX009 (ip), vehicle: Klucel (hydroxypropylcellulose) (HPC)) was 105 % of control.

With `CC1=C(N(C)C)C(=O)N(c2ccccc2)CN1C` the T/C (dose: 3.75 mg/kg/injection, schedule: Q01DX005 (ip), vehicle: saline with Tween-80) was 111 % of control, the T/C (dose: 7.5 mg/kg/injection, schedule: Q01DX005 (ip), vehicle: saline with Tween-80) was 102 % of control and the T/C (dose: 15.0 mg/kg/injection, schedule: Q01DX005 (ip), vehicle: saline with Tween-80) was 101 % of control and 103 % of control.

`COC(CCl)(CBr)OC` was tested, and the T/C [2] was 95 % of control, the T/C [3] was 97 % of control and the T/C [14] was 105 % of control.

For `COC1CC(N=S(=O)(O)c2ccc(N)cc2)[N-]C(OC)N1.[Ag+]` (stereo not given), the T/C [11] was 97 % of control, the T/C [12] was 93 % of control and the T/C [13] was 102 % of control.

`c1ccc(-c2nc3ccccc3nc2-c2ccc(Sc3ccc(-c4nc5ccccc5nc4-c4ccccc4)cc3)cc2)cc1` was tested, and the T/C (dose: 6.25 mg/kg/injection, schedule: Q01DX009 (ip), vehicle: saline with Tween-80) was 96 % of control, the T/C [1] was 93 % of control and the T/C [2] was 90 % of control.

With `CN(C)CC(CN(C)C)C(=O)/C=C/c1ccc(O)cc1` the T/C (dose: 1.56 mg/kg/injection, schedule: Q01DX005 (ip), vehicle: saline) was 105 % of control, the T/C (dose: 3.12 mg/kg/injection, schedule: Q01DX005 (ip), vehicle: saline) was 114 % of control and the T/C (dose: 6.25 mg/kg/injection, schedule: Q01DX005 (ip), vehicle: saline) was 114 % of control.
